The subject of experiment [1] is vertebral fractures in osteoporotic post-menopausal women. On the procedure:
VERTEBRAL FRACTURES—Calculations of prevalent and incident categorical vertebral fractures were performed by comparing each patient's baseline vertebral heights with a reference population (prevalent fracture) and with their follow-up heigiits (incident fractures). Only data from the true baselines were used to determine prevalent fractures. Any vertebral height ratio more than three standard deviations below its corresponding population reference value was defined as a prevalent vertebral fracture. An incident fracture was defined as greater than or equal to a 20% reduction from baseline vertebral height, with an absolute decrease of at least 4 mm in any vertebral height between baseline and follow-up.
(§1) Postmenopausal women having a “low” lumbar spinal bone mineral density, defined as either a bone mineral density (BMD) of less than or equal to 0.92 g/cm^2 (+ or −0.02 g/cm^2) as measured by Lunar DPX method, or less than or equal to 0.80 g/cm^2 (+ or −0.02 g/cm^2) as measured by the Hologic QDR method are considered to have osteoporosis. This definition corresponds to a BMD of approximately two and one-half standard deviations below the mean BMD of mature pre-menopausal Caucasian women in the United States. Patients are otherwise in good health based on medical history, a physical examination and a laboratory screening evaluation.
(§2) Data was collected on a total of 881 patients from two study groups (cohorts), following virtually identical protocol design and procedures, except that one study was conducted in the United States, and the other was conducted in Canada, Mexico, Europe, Israel, South America, Australia and New Zealand. Data from the two groups was then pooled. […] Additionally, all patients received dietary evaluation and instruction on calcium intake.
(§3) Assessment of vertebral fracture and vertebral deformity (SDI) was based on measurements from lateral spine x-rays, blinded to sequence. Lateral spine x-rays were taken at baseline, one, two and three years. The process of reading the x-rays involved a computerized entry of measurements taken at each of the vertebrae noted on the x-rays, a process known as digitization. […] A computer mouse with cross-hairs is used to enter the data as X,Y coordinates into a commercially available digitization board and computer software program, which computes the distance between landmarks (vertebral heights) in millimeters.

For experiment [2], the system named is vertebral deformity in osteoporotic post-menopausal women. The following applies: after three years.
Excerpt: as §1, §2, §3

Experiment [3] concerns decrease in stature in osteoporotic post-menopausal women. The note with it: over three years.
Excerpt: as §1, §2

Here are results for one compound from US20010051616A1, “METHOD OF LESSENING THE RISK OF VERTEBRAL FRACTURES” (priority 1995, published 2001).

As to `NCCCC(O)(P(=O)(O)O)P(=O)(O)O` [alendronate, 4-amino-1-hydroxy-butylidene-1,1-bisphosphonate], the “number of vertebral fractures per 100 patients” value in experiment [1] (three years) was determined as 4.2. In addition, the “women with a new vertebral fracture” value in experiment [1] (three years of study, 17 of 526 women, oral 5, 10 or 20/5 mg daily pooled, p=0.034 vs placebo) is listed as 3.23%. Also, the “proportion of patients experiencing two or more fractures among patients with at least one incident vertebral fracture” value in experiment [1] (three years, 3/17) is 18%. The “mild fractures (end-plate deformity fractures) among women who sustained an incident fracture” value in experiment [1] (three years, 6/17) was 6/17 (35.3%). In addition, in experiment [1] (three years, 11/17), the “severe fractures (crush or wedge fractures) among women who sustained an incident fracture” value is recorded as 11/17 (64.7%). The “reduction in vertebral fracture rate per 100 patients compared to placebo” value in experiment [1] (total number of vertebral fractures) was “at least 63%”. For the same compound, in experiment [2], the “SDI mean change from baseline, women with increased deformity” value worked out at 0.143. Also, in experiment [2] (all women), the “SDI mean change from baseline, overall” value is 0.041. Besides, the “patients with progression (increase) in vertebral deformity by SDI” value in experiment [2] (p=0.028 by Chi-square test) is 33%. The “mean stature lost in patients who sustained at least one vertebral fracture” value in experiment [3] is 5.9 mm.
